Drawing on PubChem BioAssay (NCI), this text covers GI50 and TGI for eight compounds.

Values joined by “and” are separate entries in the source; they are usually repeats but may differ in a detail not shown here. Identical values can stand only once.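 1) Cells in 96-well plates. 2) Compound, 48 h, 5 concentrations. 3) Linear interpolation between surrounding doses. 4) Unreached endpoint = highest concentration. GI50 marks 50% less growth. TGI denotes the concentration required for complete inhibition of growth.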 *1 amine or outer side, *2 acyl side, *3 side chain or, on linkers, in order; H or OH if unused. Where a SMILES comes first, the peptide text is derived from it. Bridges are numbered along the chain shown (N, C = ends). Roman numbers before positions name the chains, in order. [ ]: non-standard residue; d: D form. Actinocin(9to1) = Cc1c2oc3c(C)ccc(C(=O)[*:1])c3nc-2c(C(=O)[*:2])c(N)c1=O; NMeF = CN[CH](Cc1ccccc1)C(=O)O; Sar = CNCC(=O)O

Some test systems named below: COLO 205 colon; MCF7 breast; PC-3 prostate; HCC-2998 colon; SN12C renal; SK-MEL-28 melanoma; KM12 colon; EKVX NSCLC; HL-60(TB) leukemia; OVCAR-4 ovarian.
Test in all cases: NCI anticancer screen, dose series, 48 h

`Nc1ncc(-c2cccc(S(N)(=O)=O)c2)c2scc(-c3ccc(F)c(Cl)c3)c12`: the GI50 with COLO 205 colon is 5.92 µM; with MCF7 breast, 5.93 µM; in the assay on PC-3 prostate it was 6.83 µM; in the assay with HCC-2998 colon it was 6700 nM; in the assay with SN12C renal, 5.74 µM; with SK-MEL-28 melanoma, 8.8 µM. Also, the GI50 in the assay with KM12 colon was 5.56 µM; in the assay with EKVX NSCLC, 7.75 µM; in the assay on HL-60(TB) leukemia, 4.76 µM; with OVCAR-4 ovarian, 6.65 µM. Moreover, the TGI with COLO 205 colon was 11.8 µM; with MCF7 breast, 15.9 µM; in the assay on PC-3 prostate, more than 20.6 µM; with HCC-2998 colon, 13.3 µM; in the assay on SN12C renal it was more than 23.2 µM; with SK-MEL-28 melanoma, more than 23.3 µM. Further, the TGI with KM12 colon is 14.7 µM; with EKVX NSCLC, more than 24.2 µM; with HL-60(TB) leukemia, 11.7 µM; with OVCAR-4 ovarian, more than 23.7 µM.

For `CC(O)c1cc(C(=O)N[C@@H](C)Cn2ccc(-c3ccc(C#N)c(Cl)c3)n2)n[nH]1` (some centres undefined), the GI50 in the assay with COLO 205 colon is 54 µM; with MCF7 breast it was 30.7 µM; in the assay on PC-3 prostate it was 22.1 µM; in the assay with HCC-2998 colon, more than 100000 nM; in the assay with SN12C renal, 48.7 µM; in the assay with SK-MEL-28 melanoma it was 72.8 µM. For the same compound, the GI50 in the assay with KM12 colon was 76.7 µM; with EKVX NSCLC it was 36.8 µM; in the assay with HL-60(TB) leukemia it was 0.0272 µM; with OVCAR-4 ovarian it was 16.3 µM. The TGI in the assay on COLO 205 colon, in the assay with MCF7 breast, in the assay with PC-3 prostate, in the assay on HCC-2998 colon, in the assay on SN12C renal and with SK-MEL-28 melanoma was more than 100 µM throughout. Also, the TGI with KM12 colon is more than 100 µM; in the assay on EKVX NSCLC, more than 100 µM; in the assay on HL-60(TB) leukemia, 0.24 µM; in the assay with OVCAR-4 ovarian, more than 100 µM.

For the compound `COc1cc(-c2csc(NC(=O)Nc3cc(Cl)cc(Cl)c3)n2)cc(OC)c1OC`, the GI50 in the assay with COLO 205 colon is 3.11 µM; in the assay on MCF7 breast, 2.01 µM; in the assay on PC-3 prostate, 1.59 µM; in the assay on HCC-2998 colon, 2390 nM; with SN12C renal it was 1.78 µM; with SK-MEL-28 melanoma, 2.17 µM. The GI50 in the assay on KM12 colon is 2.48 µM; in the assay with EKVX NSCLC, 1.87 µM; with HL-60(TB) leukemia, 3.65 µM; in the assay on OVCAR-4 ovarian, 1.78 µM. Moreover, the TGI in the assay on COLO 205 colon is 11.4 µM; in the assay with MCF7 breast, 5.42 µM; in the assay with PC-3 prostate, 3.61 µM; in the assay on HCC-2998 colon, 5.55 µM; in the assay with SN12C renal, 3.28 µM; with SK-MEL-28 melanoma it was 5.43 µM. Moreover, the TGI in the assay with KM12 colon is 8.14 µM; with EKVX NSCLC it was 4.22 µM; with HL-60(TB) leukemia it was more than 100 µM; in the assay on OVCAR-4 ovarian, 3.36 µM.

On to `COc1cccc2c1n([O-])c1cccc(OC)c1[n+]2=O`, for which the GI50 was 12.1 µM in the assay with COLO 205 colon; 3.15 µM in the assay with MCF7 breast; 7.76 µM in the assay on PC-3 prostate; 2360 nM in the assay on HCC-2998 colon; 6.85 µM with SN12C renal; 10.6 µM in the assay on KM12 colon. In addition, the GI50 is 7.26 µM in the assay on EKVX NSCLC and 3.23 µM in the assay with HL-60(TB) leukemia. In addition, the TGI in the assay on COLO 205 colon is 28.5 µM; in the assay on MCF7 breast, 25.6 µM; in the assay with PC-3 prostate, 35.3 µM; in the assay with HCC-2998 colon, 11.6 µM; with SN12C renal, more than 100 µM; in the assay with KM12 colon, 29.6 µM. The TGI with EKVX NSCLC came to 37 µM; in the assay with HL-60(TB) leukemia, 9.12 µM.

With `CC(=O)c1cc(O)c2ccccc2c1O`, the GI50 in the assay with COLO 205 colon was 19 µM; with MCF7 breast, 14.8 µM; in the assay with PC-3 prostate it was 20.3 µM; in the assay on HCC-2998 colon, 19900 nM; with SN12C renal it was 17.5 µM; with SK-MEL-28 melanoma, 22.9 µM. Also, the GI50 was 18.8 µM with KM12 colon, 22.1 µM in the assay with EKVX NSCLC, 25.5 µM with HL-60(TB) leukemia and 14.2 µM in the assay on OVCAR-4 ovarian. The TGI in the assay with COLO 205 colon amounted to 34.4 µM; with MCF7 breast it was 36.9 µM; in the assay on PC-3 prostate, 50.8 µM; with HCC-2998 colon, 37.1 µM; with SN12C renal, 36.3 µM; with SK-MEL-28 melanoma, 44.5 µM. The TGI with KM12 colon is 35.1 µM; in the assay with EKVX NSCLC, 81.2 µM; in the assay on HL-60(TB) leukemia it was 62.5 µM; in the assay with OVCAR-4 ovarian, 41.6 µM.

Regarding `CS(=O)(=O)N(c1cc(-c2ccc3ncnc(Nc4cccc(Cl)c4)c3c2)cnc1Cl)S(C)(=O)=O`, the GI50 was 0.421 µM in the assay with COLO 205 colon; 0.23 µM in the assay on MCF7 breast; 0.539 µM in the assay on PC-3 prostate; 690 nM in the assay with HCC-2998 colon; 0.386 µM in the assay with SN12C renal; 0.306 µM in the assay with SK-MEL-28 melanoma. The GI50 in the assay with KM12 colon was 1.21 µM; in the assay on EKVX NSCLC it was 0.357 µM; in the assay on HL-60(TB) leukemia, 0.284 µM; in the assay on OVCAR-4 ovarian, 1.04 µM. Further, the TGI with COLO 205 colon worked out at 2.04 µM; in the assay with MCF7 breast, 9.69 µM; in the assay with PC-3 prostate, 3.63 µM; in the assay on HCC-2998 colon, 2.53 µM; in the assay on SN12C renal, 17 µM; in the assay on SK-MEL-28 melanoma, 11.1 µM. Moreover, the TGI came out at 4.72 µM in the assay with KM12 colon, 2.25 µM with EKVX NSCLC, 6.48 µM in the assay on HL-60(TB) leukemia and 10.4 µM in the assay on OVCAR-4 ovarian.

In the case of `CCN(CC)c1ccc(/C=C/C=C2\NC(=O)NC2=O)cc1`, the GI50 in the assay with COLO 205 colon is 3.22 µM; in the assay on MCF7 breast it was 3.77 µM; in the assay on PC-3 prostate, 3.75 µM; with HCC-2998 colon, 2440 nM; with SN12C renal, 9.41 µM; in the assay with SK-MEL-28 melanoma it was 27.1 µM. In addition, the GI50 is 1.85 µM in the assay on KM12 colon, 3.77 µM in the assay on EKVX NSCLC, 3.06 µM with HL-60(TB) leukemia and 9.01 µM in the assay on OVCAR-4 ovarian. The TGI in the assay with COLO 205 colon was 16.2 µM; in the assay on MCF7 breast it was more than 100 µM; in the assay with PC-3 prostate it was more than 100 µM; with HCC-2998 colon, 29.1 µM; with SN12C renal it was more than 100 µM; with SK-MEL-28 melanoma it was more than 100 µM. In addition, the TGI in the assay on KM12 colon is 21.3 µM; with EKVX NSCLC it was more than 100 µM; in the assay on HL-60(TB) leukemia it was more than 100 µM; in the assay on OVCAR-4 ovarian it was more than 100 µM.

Take `Cc1c2oc3c(C)ccc(C(=O)NC4C(=O)NC(C(C)C)C(=O)N5CCCC5C(=O)N(C)CC(=O)N(C)C(Cc5ccccc5)C(=O)OC4C)c3nc-2c(C(=O)NC2C(=O)NC(C(C)C)C(=O)N3CCCC3C(=O)N(C)CC(=O)N(C)C(Cc3ccccc3)C(=O)OC2C)c(N)c1=O` (centres undefined) (I: TVP[Sar][NMeF] / II: TVP[Sar][NMeF]; ester I:1-I:C, II:1-II:C; linker I:N-II:N via Actinocin(9to1); configuration not given here): the GI50 in the assay on COLO 205 colon was 0.00372 µM; with MCF7 breast, 0.00126 µM; with SN12C renal, < 0.01 µM and 0.00213 µM; in the assay on EKVX NSCLC, < 0.01 µM and 0.0389 µM; in the assay with HL-60(TB) leukemia it was 0.00285 µM. Besides, the TGI in the assay on COLO 205 colon was 0.0266 µM; with MCF7 breast, 0.0136 µM; with PC-3 prostate, 0.0325 µM and 0.142 µM; in the assay on HCC-2998 colon it was < 0.01 µM and 0.0486 µM; in the assay on SK-MEL-28 melanoma, 0.06 µM; in the assay with EKVX NSCLC, 0.0931 µM and > 0.603 µM. Besides, the TGI with HL-60(TB) leukemia is 0.0205 µM; in the assay on OVCAR-4 ovarian it was < 0.0109 µM and 0.033 µM.
